This note sets out measurements from patent US20250171457A1, “NITROGEN-CONTAINING HETEROCYCLIC COMPOUND HAVING NRF2 ACTIVATION EFFECT” (CHUGAI SEIYAKU KABUSHIKI KAISHA, priority 2022, published 2025).

The subject of this assay is Nrf2 transcriptional activity (pARE-Luc reporter) in HepG2 cells. Briefly: In vitro Nrf2 transcriptional activity measurement by ARE-dependent reporter assay in HepG2 cell. It is filed as cell-based, human. The note with it: Homo sapiens; HepG2 cells transfected with pARE-Luc, 4 hours at 37° C.; luciferase activity of Example 1-54 or Example 17-23 at 3.75 μM defined as 100%. How it is done:
Test Example 1: In Vitro Nrf2 Transcriptional Activity Measurement by ARE-Dependent Reporter Assay in HepG2 Cell
A human liver cancer-derived cell line HepG2 was transfected with pGL4.37 vector (pARE-Luc, Promega Corp.) and incubated overnight at 37° C. in a humidified atmosphere containing 5% CO2. The cells were dissociated by trypsin treatment, inoculated to a 384-well plate supplemented with a test compound, and incubated at 37° C. for 4 hours. Then, Bright-Glo Reagent (Promega Corp.) was added to the plate, and luciferase activity was measured with Envision plate reader.
Luciferase activity obtained through the action of the compound of Example 1-54 or Example 17-23 at a concentration of 3.75 μM was defined as 100%. The luciferase activity of each well was converted to a response rate (%). The dose-response curve of the compound of each Example was prepared to calculate a 50% effective concentration (EC50).
For orientation: Reporter assays use an easily measured gene product as a stand-in for the process of interest.
For orientation: EC50 means the concentration that produces a half-maximal response. A higher EC50 goes with a need for much substance. On to `O=C(O)c1cc(F)c(-c2cccc3c2OCN(C(=O)c2c(Cl)cc(N4C5CCCC4COC5)cc2Cl)C3)cc1N1C2CCC1COC2` [Compound 1-43, 4-[3-[2,6-Dichloro-4-(3-oxa-9-azabicyclo[3.3.1]nonan-9-yl)benzoyl]-2,4-dihydro-1,3-benzoxazin-8-yl]-5-fluoro-2-(3-oxa-8-azabicyclo[3.2.1]octan-8-yl)benzoic acid], for which the half-maximal effective concentration (EC50) came out at 1.8 nM. `O=C(O)c1cc(F)c(-c2cccc3c2OCN(C(=O)c2c(Cl)cc(N4CC(F)(F)C(F)(F)C4)cc2Cl)C3)cc1N1C2CCC1COC2` [Compound 1-44, 4-[3-[2,6-Dichloro-4-(3,3,4,4-tetrafluoropyrrolidin-1-yl)benzoyl]-2,4-dihydro-1,3-benzoxazin-8-yl]-5-fluoro-2-(3-oxa-8-azabicyclo[3.2.1]octan-8-yl)benzoic acid] showed a concentration giving a half-maximal response (EC50) of 6.5 nM. With `CN1CCN(c2cc(Cl)c(C(=O)N3COc4c(cccc4-c4cc(N5C6CCC5COC6)c(C(=O)O)cc4F)C3)c(Cl)c2)CC(F)(F)C1` [Compound 1-45, 4-[3-[2,6-Dichloro-4-(6,6-difluoro-4-methyl-1,4-diazepan-1-yl)benzoyl]-2,4-dihydro-1,3-benzoxazin-8-yl]-5-fluoro-2-(3-oxa-8-azabicyclo[3.2.1]octan-8-yl)benzoic acid] the figure was 3.7 nM; with `Cn1cc2c(n1)CN(c1cc(Cl)c(C(=O)N3COc4c(cccc4-c4cc(N5C6CCC5COC6)c(C(=O)O)cc4F)C3)c(Cl)c1)C2` [Compound 1-46, 4-[3-[2,6-Dichloro-4-(2-methyl-4,6-dihydropyrrolo[3,4-c]pyrazol-5-yl)benzoyl]-2,4-dihydro-1,3-benzoxazin-8-yl]-5-fluoro-2-(3-oxa-8-azabicyclo[3.2.1]octan-8-yl)benzoic acid], 1.9 nM. With `N#CC1CC2(C1)CN(c1cc(Cl)c(C(=O)N3COc4c(cccc4-c4cc(N5C6CCC5COC6)c(C(=O)O)cc4F)C3)c(Cl)c1)C2` [Compound 1-47, 4-[3-[2,6-Dichloro-4-(6-cyano-2-azaspiro[3.3]heptan-2-yl)benzoyl]-2,4-dihydro-1,3-benzoxazin-8-yl]-5-fluoro-2-(3-oxa-8-azabicyclo[3.2.1]octan-8-yl)benzoic acid] the figure was 12 nM; with `CN1CC2CN(c3cc(Cl)c(C(=O)N4COc5c(cccc5-c5cc(N6CCOCC6)c(C(=O)O)cc5F)C4)c(Cl)c3)CC2C1` (stereo not shown) [Compound 1-48, 4-[3-[2,6-Dichloro-4-(2-methyl-1,3,3a,4,6,6a-hexahydropyrrolo[3,4-c]pyrrol-5-yl)benzoyl]-2,4-dihydro-1,3-benzoxazin-8-yl]-5-fluoro-2-morpholin-4-ylbenzoic acid], 2.3 nM. To `O=C(O)c1cc(F)c(-c2cccc3c2OCN(C(=O)c2c(Cl)cc(N4CCC5(CCOC5)C4)cc2Cl)C3)cc1N1CCOCC1` (stereo not shown) [Compound 1-49, 4-[3-[2,6-Dichloro-4-(2-oxa-7-azaspiro[4.4]nonan-7-yl)benzoyl]-2,4-dihydro-1,3-benzoxazin-8-yl]-5-fluoro-2-morpholin-4-ylbenzoic acid] belongs 1.9 nM; to `O=C(O)c1cc(F)c(-c2cccc3c2OCN(C(=O)c2c(Cl)cc(N4CCC4=O)cc2Cl)C3)cc1N1CCOCC1` [Compound 1-50, 4-[3-[2,6-Dichloro-4-(2-oxoazetidin-1-yl)benzoyl]-2,4-dihydro-1,3-benzoxazin-8-yl]-5-fluoro-2-morpholin-4-ylbenzoic acid], 4.6 nM; to `O=C(O)c1cc(F)c(-c2cccc3c2OCN(C(=O)c2c(Cl)cc(N4CCOC4=O)cc2Cl)C3)cc1N1CCOCC1` [Compound 1-51, 4-[3-[2,6-Dichloro-4-(2-oxo-1,3-oxazolidin-3-yl)benzoyl]-2,4-dihydro-1,3-benzoxazin-8-yl]-5-fluoro-2-morpholin-4-ylbenzoic acid], 10 nM. Consider `O=C(O)c1cc(F)c(-c2cccc3c2OCN(C(=O)c2c(Cl)cc(N4CCCC4=O)cc2Cl)C3)cc1N1CCOCC1` [Compound 1-52, 4-[3-[2,6-Dichloro-4-(2-oxopyrrolidin-1-yl)benzoyl]-2,4-dihydro-1,3-benzoxazin-8-yl]-5-fluoro-2-morpholin-4-ylbenzoic acid], for which the midpoint of the response, the EC50, lay at 14 nM.

Turning to `CS(=O)(=O)C1CN(c2cc(Cl)c(C(=O)N3COc4c(cccc4-c4cc(N5CCOCC5)c(C(=O)O)cc4F)C3)c(Cl)c2)C1` [Compound 1-53, 4-[3-[2,6-Dichloro-4-(3-methylsulfonylazetidin-1-yl)benzoyl]-2,4-dihydro-1,3-benzoxazin-8-yl]-5-fluoro-2-morpholin-4-ylbenzoic acid], the EC50 worked out at 5 nM. Take `O=C(O)c1cc(F)c(-c2cccc3c2OCN(C(=O)c2c(Cl)cc(N4CCN(C5COC5)CC4)cc2Cl)C3)cc1N1CCOCC1` [Compound 1-55, 4-[3-[2,6-Dichloro-4-[4-(oxetan-3-yl)piperazin-1-yl]benzoyl]-2,4-dihydro-1,3-benzoxazin-8-yl]-5-fluoro-2-morpholin-4-ylbenzoic acid]: the EC50 was found to be 1.5 nM. Turning to `CN1CCN(c2cc(Cl)c(C(=O)N3COc4c(cccc4-c4cc(N5CCOCC5)c(C(=O)O)cc4F)C3)c(Cl)c2)CC1` [Compound 1-56], the response was half-maximal at 1.3 nM (EC50).

Take `CC(C)(O)CN1CCN(c2cc(Cl)c(C(=O)N3COc4c(cccc4-c4cc(N5CCOCC5)c(C(=O)O)cc4F)C3)c(Cl)c2)CC1` [Compound 1-57, 4-[3-[2,6-Dichloro-4-[4-(2-hydroxy-2-methylpropyl)piperazin-1-yl]benzoyl]-2,4-dihydro-1,3-benzoxazin-8-yl]-5-fluoro-2-morpholin-4-ylbenzoic acid]: the EC50 was found to be 1.4 nM. To `O=C(O)c1cc(F)c(-c2cccc3c2OCN(C(=O)c2c(Cl)cc(N4CCN(CCO)CC4)cc2Cl)C3)cc1N1CCOCC1` [Compound 1-58, 4-[3-[2,6-Dichloro-4-[4-(2-hydroxyethyl)piperazin-1-yl]benzoyl]-2,4-dihydro-1,3-benzoxazin-8-yl]-5-fluoro-2-morpholin-4-ylbenzoic acid] belongs 4.2 nM; to `O=C(O)c1cc(F)c(-c2cccc3c2OCN(C(=O)c2c(Cl)cc(N4CCOCC4)cc2Cl)C3)cc1N1CCOCC1` [Compound 1-59, 4-[3-(2,6-Dichloro-4-morpholin-4-ylbenzoyl)-2,4-dihydro-1,3-benzoxazin-8-yl]-5-fluoro-2-morpholin-4-ylbenzoic acid], 1.2 nM. Molecule `CN1CCC(N2CCN(c3cc(Cl)c(C(=O)N4COc5c(cccc5-c5cc(N6CCOCC6)c(C(=O)O)cc5F)C4)c(Cl)c3)CC2)CC1` [Compound 1-60, 4-[3-[2,6-Dichloro-4-[4-(1-methylpiperidin-4-yl)piperazin-1-yl]benzoyl]-2,4-dihydro-1,3-benzoxazin-8-yl]-5-fluoro-2-morpholin-4-ylbenzoic acid] returned an EC50 of 4.2 nM. The molecule `O=C(O)c1ccc(-c2cccc3c2OCN(C(=O)c2c(Cl)cc(N4CC5(CCCO5)C4)cc2Cl)C3)cc1N1C2CCC1COC2` [Compound 1-61, 4-[3-[2,6-Dichloro-4-(5-oxa-2-azaspiro[3.4]octan-2-yl)benzoyl]-2,4-dihydro-1,3-benzoxazin-8-yl]-2-(3-oxa-8-azabicyclo[3.2.1]octan-8-yl)benzoic acid] had an EC50 of 2.6 nM. Take `CC(C)(O)CN1CCN(c2cc(Cl)c(C(=O)N3COc4c(cccc4-c4ccc(C(=O)O)c(N5CCOCC5)c4)C3)c(Cl)c2)CC1` [Compound 1-62, 4-[3-[2,6-Dichloro-4-[4-(2-hydroxy-2-methylpropyl)piperazin-1-yl)benzoyl]-2,4-dihydro-1,3-benzoxazin-8-yl]-2-morpholin-4-ylbenzoic acid]: the half-maximal effective concentration (EC50) came out at 3.2 nM.
